Consider nine compounds from PubChem BioAssay (NCI).

Test systems include MALME-3M melanoma; A498 renal; 786-0 renal; SK-OV-3 ovarian; OVCAR-3 ovarian; CCRF-CEM leukemia; SF-295 CNS; LOX IMVI melanoma; RXF 393 renal; KM12 colon.
Holding throughout (assay): inhibition of tumour cell growth, NCI panel, 48 h

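Assay format: 96-well plates, 48-hour exposure. GI50: concentration for 50% inhibition of growth. The concentration for full growth arrest is given as TGI.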

With `O=C(/C=C/c1ccccc1)c1ccc(NCc2nc3ccccc3[nH]2)cc1`, the TGI in the experiment on MALME-3M melanoma was 26.9 µM; with A498 renal, 18.3 µM; with 786-0 renal, 14.4 µM; in the experiment with SK-OV-3 ovarian, 18.1 µM; in the experiment with OVCAR-3 ovarian it was 9.57 µM; with CCRF-CEM leukemia, 8.38 µM. Moreover, the TGI in the experiment with SF-295 CNS was 13.1 µM; with LOX IMVI melanoma, 3.76 µM; in the experiment on RXF 393 renal it was 16.8 µM; with KM12 colon it was 4.54 µM.

As for `CCCCN(CC)CC(C(C)=O)c1c(O)c2ccccc2oc1=O` (stereo not drawn), the TGI in the experiment on MALME-3M melanoma, with A498 renal, in the experiment with 786-0 renal, with SK-OV-3 ovarian, in the experiment with OVCAR-3 ovarian and in the experiment with CCRF-CEM leukemia was above 100 µM throughout. Further, the TGI in the experiment with SF-295 CNS, with LOX IMVI melanoma, in the experiment on RXF 393 renal and in the experiment with KM12 colon was above 100 µM in each case.

As for `O=C(Nc1ccc(Cl)c(Cl)c1)NS(=O)(=O)c1cnccc1Oc1ccc(F)cc1`, the GI50 with MALME-3M melanoma was 2.53 µM; with A498 renal, above 100 µM; with 786-0 renal, 4.51 µM; in the experiment on SK-OV-3 ovarian it was 3.87 µM; with OVCAR-3 ovarian, 2.79 µM; in the experiment on CCRF-CEM leukemia, 2.47 µM. Further, the GI50 is 1.65 µM in the experiment with SF-295 CNS, 3.24 µM in the experiment on LOX IMVI melanoma, 3.8 µM in the experiment with RXF 393 renal and 3.75 µM in the experiment on KM12 colon. The TGI in the experiment on MALME-3M melanoma was 7.55 µM; in the experiment on A498 renal it was above 100 µM; in the experiment with 786-0 renal, 70.9 µM; in the experiment with SK-OV-3 ovarian, 18.2 µM; in the experiment on OVCAR-3 ovarian it was 8.11 µM; in the experiment on CCRF-CEM leukemia, 7.55 µM. Besides, the TGI was 4.8 µM with SF-295 CNS, 53.1 µM in the experiment with LOX IMVI melanoma, above 100 µM with RXF 393 renal and 16.7 µM in the experiment with KM12 colon.

As to `CC(C)(C)OC(=O)NCCCCCCCn1c2c(c3ccccc3c1=O)C(=O)c1ccccc1-2`, the GI50 is 37.2 µM with MALME-3M melanoma; 4.74 µM with A498 renal; 23.2 µM with 786-0 renal; 31.6 µM with SK-OV-3 ovarian; 34.3 µM with OVCAR-3 ovarian; 76.1 µM in the experiment on CCRF-CEM leukemia. The GI50 was 37.4 µM in the experiment with SF-295 CNS, 65.2 µM in the experiment with LOX IMVI melanoma, 16.2 µM in the experiment on RXF 393 renal and 60.6 µM in the experiment with KM12 colon. Further, the TGI is above 100 µM in the experiment on MALME-3M melanoma; 42.2 µM in the experiment with A498 renal; 55.4 µM with 786-0 renal; above 100 µM in the experiment with SK-OV-3 ovarian; above 100 µM in the experiment on OVCAR-3 ovarian; above 100 µM with CCRF-CEM leukemia. For the same compound, the TGI with SF-295 CNS is above 100 µM; with LOX IMVI melanoma, above 100 µM; in the experiment on RXF 393 renal, 43.5 µM; with KM12 colon, above 100 µM.

Turning to `Cc1c2ccccc2cc2ccc3oc([N+](=O)[O-])cc3c12`, the TGI with MALME-3M melanoma, with A498 renal, in the experiment on 786-0 renal, in the experiment with SK-OV-3 ovarian, in the experiment on OVCAR-3 ovarian and with CCRF-CEM leukemia was above 100 µM in each case. In addition, the TGI in the experiment on SF-295 CNS, in the experiment with LOX IMVI melanoma, with RXF 393 renal and with KM12 colon was above 100 µM in each case.

Turning to `O=C(O)[C@@H](Cc1ccc2ccccc2c1)NC(=O)n1c2ccccc2c2ccccc21`, the GI50 was 4.25 µM in the experiment on MALME-3M melanoma; 2.23 µM in the experiment with A498 renal; 0.708 µM with 786-0 renal; 5.64 µM with SK-OV-3 ovarian; 1.81 µM in the experiment on OVCAR-3 ovarian; 0.77 µM with CCRF-CEM leukemia. The GI50 is 2.29 µM with SF-295 CNS, 3.63 µM with LOX IMVI melanoma, 1.57 µM with RXF 393 renal and 2.18 µM with KM12 colon. Moreover, the TGI in the experiment on MALME-3M melanoma stood at 31.5 µM; with A498 renal, 9.31 µM; in the experiment on 786-0 renal, 12.2 µM; with SK-OV-3 ovarian, 44.5 µM; in the experiment with OVCAR-3 ovarian, 6.78 µM; with CCRF-CEM leukemia, 18 µM. For the same compound, the TGI with SF-295 CNS came to 8.97 µM; in the experiment with LOX IMVI melanoma it was 20 µM; in the experiment on RXF 393 renal, 7.15 µM; with KM12 colon it was 14.3 µM.

Regarding `CC(=O)OCC1OC(N2C(=O)C(=O)c3ccccc32)C(OC(C)=O)C(OC(C)=O)C1OC(C)=O` (stereo not drawn), the TGI in the experiment on MALME-3M melanoma, with A498 renal, in the experiment with 786-0 renal, with SK-OV-3 ovarian, in the experiment with OVCAR-3 ovarian and in the experiment on CCRF-CEM leukemia was above 100 µM throughout. Further, the TGI in the experiment with SF-295 CNS, in the experiment on LOX IMVI melanoma, in the experiment on RXF 393 renal and in the experiment with KM12 colon was above 100 µM each time.

In the case of `COc1ccc2c(c1)/C(=C/c1cc(OC)c(OC)c(OC)c1)C(=O)N2`, the GI50 with MALME-3M melanoma is 0.556 µM; with A498 renal, 0.146 µM; in the experiment with 786-0 renal, 0.236 µM; in the experiment with SK-OV-3 ovarian, 0.26 µM; in the experiment on CCRF-CEM leukemia, 0.253 µM; in the experiment with SF-295 CNS it was 0.104 µM. Moreover, the GI50 is 0.443 µM with LOX IMVI melanoma, 0.187 µM with RXF 393 renal and 0.102 µM with KM12 colon. Also, the TGI in the experiment on MALME-3M melanoma is above 100 µM; in the experiment with A498 renal it was 0.848 µM; in the experiment with 786-0 renal, above 94.3 µM; with SK-OV-3 ovarian, 5.23 µM; with OVCAR-3 ovarian, 0.0463 µM; with SF-295 CNS, 0.602 µM. Moreover, the TGI is above 100 µM with LOX IMVI melanoma, 0.587 µM in the experiment on RXF 393 renal and above 39.9 µM in the experiment on KM12 colon.

As to `c1c[nH]c(CN2CCOCC2)n1`, the TGI with MALME-3M melanoma, in the experiment with A498 renal, with 786-0 renal, in the experiment on SK-OV-3 ovarian, in the experiment on OVCAR-3 ovarian and with CCRF-CEM leukemia was above 100 µM throughout. The TGI with SF-295 CNS, with LOX IMVI melanoma, in the experiment on RXF 393 renal and in the experiment on KM12 colon was above 100 µM in each case.
